The target in the assay is HPK full length, T165E S171E (Homo sapiens (Human), UniProt Q92918, S171E/T165E). The experiment in a line: HPK1-FL HTRF enzymatic assay ("HTRF"). In kind it is biochemical. To be noted: ATP 1 mM. In outline: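 Full-length HPK1 (T165E/S171E) was preincubated 30 min with compound, then reacted 60 min with biotin-SLP-76 and 1 mM ATP. Phospho-SLP-76 was detected by HTRF (Eu-anti-pSLP76 antibody, SA-XL665) after a further 60 min.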

pKi: −log10 of the molar value. Counter-ions that a name gives are not always drawn. Like-named read-outs stand apart in the source and are kept apart here.

For orientation: pKi means the Ki on a negative log10 scale, so that one unit is a factor of ten.

Sequence of HPK full length, T165E S171E (Q92918 whole entry T165E/S171E, looked up): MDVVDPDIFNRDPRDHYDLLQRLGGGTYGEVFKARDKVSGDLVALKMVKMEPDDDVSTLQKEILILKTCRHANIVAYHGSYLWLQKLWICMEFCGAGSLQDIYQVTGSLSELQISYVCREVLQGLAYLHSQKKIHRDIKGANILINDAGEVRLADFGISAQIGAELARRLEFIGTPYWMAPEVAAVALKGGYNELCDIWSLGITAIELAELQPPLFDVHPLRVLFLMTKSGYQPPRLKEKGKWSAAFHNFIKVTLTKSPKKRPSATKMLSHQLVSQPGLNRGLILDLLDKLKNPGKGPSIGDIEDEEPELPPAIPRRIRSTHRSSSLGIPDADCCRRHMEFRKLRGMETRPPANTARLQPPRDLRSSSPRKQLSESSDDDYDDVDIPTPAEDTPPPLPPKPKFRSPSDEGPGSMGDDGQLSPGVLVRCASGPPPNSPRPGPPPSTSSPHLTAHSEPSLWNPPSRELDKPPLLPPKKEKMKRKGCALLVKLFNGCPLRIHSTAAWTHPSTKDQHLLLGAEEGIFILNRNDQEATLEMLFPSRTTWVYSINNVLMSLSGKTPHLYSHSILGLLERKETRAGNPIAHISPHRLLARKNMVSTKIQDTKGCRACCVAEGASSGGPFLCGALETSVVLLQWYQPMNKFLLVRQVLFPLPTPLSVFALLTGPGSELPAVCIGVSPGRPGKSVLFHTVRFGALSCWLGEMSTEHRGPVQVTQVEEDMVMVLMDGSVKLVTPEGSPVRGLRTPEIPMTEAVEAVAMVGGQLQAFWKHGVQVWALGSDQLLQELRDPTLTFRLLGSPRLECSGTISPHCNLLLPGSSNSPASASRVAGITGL

For `Cc1c(-c2cc3cc(NC(=O)O[C@H]4COCCN(C)C4)ncc3c(N)c2F)cnc2c1NCCO2` (single isomer, unassigned) [Compound 440a], the pKi (read-out: HPK1 Ki) is 10.08.
Same read-out and setting: the same measure for `Cc1c(-c2cc3cc(NC(=O)O[C@H]4[C@@H]5CN(S(C)(=O)=O)C[C@@H]54)ncc3c(N)c2F)cnc2c1NCCO2` [Compound 522a, (1R,5S,6s)-3-(Methylsulfonyl)-3-azabicyclo[3.1.0]hexan-6-yl (8-amino-7-fluoro-6-(8-methyl-2,3-dihydro-1H-pyrido[2,3-b][1,4]oxazin-7-yl)isoquinolin-3-yl)carbamate]: greater than 10.89.
Where the note is “HPK1 Ki”, `Cc1c(-c2cc3cc(NC(=O)O[C@H]4CC[C@H]4O)ncc3c(N)c2F)cnc2c1NCCO2` [Compound 542a, (1S,2R)-2-Hydroxycyclobutyl (8-amino-7-fluoro-6-(8-methyl-2,3-dihydro-1H-pyrido[2,3-b][1,4]oxazin-7-yl)isoquinolin-3-yl)carbamate] had a pKi of 9.48.
Take `Cc1c(-c2cc3cc(NC(=O)OC[C@@]4(F)CCN(C)C4)ncc3c(N)c2F)cnc2c1NCCO2` (single isomer, unassigned) [Compound 451a]: the pKi (read-out: HPK1 Ki) is 9.85.
On the same count and under the same terms, the same measure for `Cc1c(-c2cc3cc(NC(=O)O[C@@H]4Cc5ncnn5C4)ncc3c(N)c2F)cnc2c1NCCO2` (single isomer, unassigned) [Compound 578a]: 10.55; for `CC(=O)N[C@H]1CCCC[C@@H]1OC(=O)Nc1cc2cc(-c3cnc4c(c3C)NCCO4)c(F)c(N)c2cn1` (single isomer, unassigned) [Compound 414a]: 9.23; for `CO[C@@H]1COC[C@H]1OC(=O)Nc1cc2cc(-c3cnc4c(c3C)NCCO4)c(F)c(N)c2cn1` (single isomer, unassigned) [Compound 546b]: 10.29.
Regarding `Cc1c(-c2cc3cc(NC(=O)O[C@@H]4COC[C@H]4C)ncc3c(N)c2F)cnc2c1NCCO2` (single isomer, unassigned) [Compound 441a], the negative-log Ki (pKi) (read-out: HPK1 Ki) was greater than 10.89.
Consider `CC(=O)N1CC[C@@H](OC(=O)Nc2cc3cc(-c4cnc5c(c4C)NCCO5)c(F)c(N)c3cn2)[C@@H](F)C1` (single isomer, unassigned) [Compound 437b], for which, for the setting “read-out: HPK1 Ki”, the pKi is 10.27.
Take `Cc1c(-c2cc3cc(NC(=O)NC4CC(F)(F)C4)ncc3c(N)c2F)cnc2c1NCCO2` [Compound 714, 1-(8-Amino-7-fluoro-6-(8-methyl-2,3-dihydro-1H-pyrido[2,3-b][1,4]oxazin-7-yl)isoquinolin-3-yl)-3-(3,3-difluorocyclobutyl)urea]: under “read-out: HPK1 Ki”, the pKi is greater than 10.89.
Turning to `Cc1c(-c2cc3cc(NC(=O)O[C@H]4C[C@@H](C(=O)N5CCC5)C4)ncc3c(N)c2F)cnc2c1NCCO2` [Compound 517a, (1s,3s)-3-(Azetidine-1-carbonyl)cyclobutyl (8-amino-7-fluoro-6-(8-methyl-2,3-dihydro-1H-pyrido[2,3-b][1,4]oxazin-7-yl)isoquinolin-3-yl)carbamate], the pKi (read-out: HPK1 Ki) is greater than 10.89.
For the compound `Cc1c(-c2cc3cc(NC(=O)N[C@H]4CCCOC4)ncc3c(N)c2F)cnc2c1NCCO2` (single isomer, unassigned) [Compound 711a], the pKi (read-out: HPK1 Ki) is greater than 10.89.
Consider `CO[C@@H]1COC[C@@H]1NC(=O)Nc1cc2cc(-c3cnc4c(c3C)NCCO4)c(F)c(N)c2cn1` (single isomer, unassigned) [Compound 723a], for which the negative-log Ki (pKi) (read-out: HPK1 Ki) is 9.33.
The same measure, in the same setting: the same measure for `Cc1c(N)cncc1-c1cc2cc(NC(=O)O[C@H]3C[C@@H](C#N)C3)ncc2c(N)c1F` [Compound 534a, (1s,3s)-3-Cyanocyclobutyl (8-amino-6-(5-amino-4-methylpyridin-3-yl)-7-fluoroisoquinolin-3-yl)carbamate]: 9.85; for `Cc1c(-c2cc3cc(NC(=O)OC4CC5(C4)CN(CC(F)F)C5)ncc3c(N)c2F)cnc2c1NCCC2` [Compound 532, 2-(2,2-Difluoroethyl)-2-azaspiro[3.3]heptan-6-yl (8-amino-7-fluoro-6-(4-methyl-5,6,7,8-tetrahydro-1,5-naphthyridin-3-yl)isoquinolin-3-yl)carbamate]: 10.85.
On the same count and under the same terms, the same measure for `CC(=O)N[C@@H]1CCCC[C@H]1OC(=O)Nc1cc2cc(-c3cnc4c(c3C)NCCO4)c(F)c(N)c2cn1` (single isomer, unassigned) [Compound 414b]: 7.68; for `Cc1c(-c2cc3cc(NC(=O)O[C@H]4C[C@@H](F)C4)ncc3c(N)c2F)cnc2c1NCCO2` [Compound 541a, (1s,3s)-3-Fluorocyclobutyl (8-amino-7-fluoro-6-(8-methyl-2,3-dihydro-1H-pyrido[2,3-b][1,4]oxazin-7-yl)isoquinolin-3-yl)carbamate hydrochloride]: 10.85.
The same measure, in the same setting: under `Cc1c(-c2cc3cc(NC(=O)O[C@H]4C[C@@H](O)C4)ncc3c(N)c2F)cnc2c1NCCO2` [Compound 485a, (1s,3s)-3-Hydroxycyclobutyl (8-amino-7-fluoro-6-(8-methyl-2,3-dihydro-1H-pyrido[2,3-b][1,4]oxazin-7-yl)isoquinolin-3-yl)carbamate] stands greater than 10.89.
Take `Cc1c(-c2cc3cc(NC(=O)O[C@H]4CN(C)C[C@H]4C)ncc3c(N)c2F)cnc2c1NCCO2` (single isomer, unassigned) [Compound 442b]: the pKi (read-out: HPK1 Ki) was 9.70.
For `Cc1c(-c2cc3cc(NC(=O)O[C@@H](C)CO)ncc3c(N)c2F)cnc2c1NCCO2` (single isomer, unassigned) [Compound 530b, (5)-1-Hydroxypropan-2-yl (8-amino-7-fluoro-6-(8-methyl-2,3-dihydro-1H-pyrido[2,3-b][1,4]oxazin-7-yl)isoquinolin-3-yl)carbamate], the pKi (read-out: HPK1 Ki) was 9.96.
Take `Cc1c(-c2cc3cc(NC(=O)O[C@H]4CC[C@](C)(O)C4)ncc3c(N)c2F)cnc2c1NCCO2` (single isomer, unassigned) [Compound 533b, hydrochloride]: for the setting “read-out: HPK1 Ki”, the pKi is 10.23.
Still for that read-out and setting: the same measure for `Cc1c(-c2cc3cc(NC(=O)O[C@H]4CCCN(C)C4)ncc3c(N)c2F)cnc2c1NCCO2` [Compound 416b, (5)-1-Methylpiperidin-3-yl (8-amino-7-fluoro-6-(8-methyl-2,3-dihydro-1H-pyrido[2,3-b][1,4]oxazin-7-yl)isoquinolin-3-yl)carbamate]: 10.12; for `CC(=O)N1CC[C@H](OC(=O)Nc2cc3cc(-c4cnc5c(c4C)NCCO5)c(F)c(N)c3cn2)[C@H](F)C1` (single isomer, unassigned) [Compound 437a]: greater than 10.89.
For the compound `Cc1c(-c2cc3cc(NC(=O)N[C@H]4C[C@H]4F)ncc3c(N)c2F)cnc2c1NCCO2` [Compound 734a, 1-[8-Amino-7-fluoro-6-(8-methyl-2,3-dihydro-1H-pyrido[2,3-b][1,4]oxazin-7-yl)-3-isoquinolyl]-3-[(1S,2R)-2-fluorocyclopropyl]urea], for the setting “read-out: HPK1 Ki”, the negative logarithm of the Ki (pKi) is greater than 10.89.
For `Cc1c(-c2cc3cc(NC(=O)OC4CCNCC4)ncc3c(N)c2F)cnc2c1NCCO2` [Compound 404, Piperidin-4-yl (8-amino-7-fluoro-6-(8-methyl-2,3-dihydro-1H-pyrido[2,3-b][1,4]oxazin-7-yl)isoquinolin-3-yl)carbamate], the pKi (read-out: HPK1 Ki) is 10.52.
Take `Cc1c(N)cncc1-c1cc2cc(NC(=O)O[C@@H]3COC[C@H]3C)ncc2c(N)c1F` (single isomer, unassigned) [Compound 544b]: the negative logarithm of the Ki (pKi) (read-out: HPK1 Ki) was 8.57.
The same measure, in the same setting: under `Cc1c(-c2cc3cc(NC(=O)N[C@H]4CC[C@@H](C#N)C4)ncc3c(N)c2F)cnc2c1NCCO2` (single isomer, unassigned) [Compound 726b] stands 10.80.
On the same count and under the same terms, under `Cc1c(-c2cc3cc(NC(=O)O[C@H]4C[C@H](C(C)(C)C#N)C4)ncc3c(N)c2F)cnc2c1NCCO2` [Compound 549b, (1r,3r)-3-(2-Cyanopropan-2-yl)cyclobutyl (8-amino-7-fluoro-6-(8-methyl-2,3-dihydro-1H-pyrido[2,3-b][1,4]oxazin-7-yl)isoquinolin-3-yl)carbamate] stands greater than 10.89; under `Cc1c(-c2cc3cc(NC(=O)N[C@H]4C[C@@H](F)C4)ncc3c(N)c2F)cnc2c1NCCO2` [Compound 748a, 1-(8-Amino-7-fluoro-6-(8-methyl-2,3-dihydro-1H-pyrido[2,3-b][1,4]oxazin-7-yl)isoquinolin-3-yl)-3-((1s,3s)-3-fluorocyclobutyl)urea], greater than 10.89.
Still for that read-out and setting: the same measure for `CO[C@H]1COCC[C@H]1NC(=O)Nc1cc2cc(-c3cnc4c(c3C)NCCO4)c(F)c(N)c2cn1` (single isomer, unassigned) [Compound 750b]: greater than 10.89; for `Cc1c(-c2cc3cc(NC(=O)O[C@H]4CO[C@@H]5OCC[C@@H]54)ncc3c(N)c2F)cnc2c1NCCO2` (single isomer, unassigned) [Compound 568a]: 9.73; for `Cc1c(-c2cc3cc(NC(=O)O[C@H]4CCN([C@H]5CCOC5)C[C@H]4F)ncc3c(N)c2F)cnc2c1NCCO2` [Compound 569c, (3R,4S)-3-fluoro-1-((S)-tetrahydrofuran-3-yl)piperidin-4-yl (8-amino-7-fluoro-6-(8-methyl-2,3-dihydro-1H-pyrido[2,3-b][1,4]oxazin-7-yl)isoquinolin-3-yl)carbamate]: 10.54.
`Cc1c(-c2cc3cc(NC(=O)N[C@@H]4CCOC[C@@H]4F)ncc3c(N)c2F)cnc2c1NCCO2` (single isomer, unassigned) [Compound 747b] had a pKi (HPK1 Ki) greater than 10.89.
In the case of `Cc1c(-c2cc3cc(NC(=O)OC4C5COCC4CN(C)C5)ncc3c(N)c2F)cnc2c1NCCO2` (single isomer, unassigned) [Compound 439a], the pKi (read-out: HPK1 Ki) is greater than 10.89.
As to `Cc1c(-c2cc3cc(NC(=O)O[C@H]4C[C@@H](O)C4)ncc3c(N)c2F)cnc2c1NCCC2` [Compound 553a, (1s,3s)-3-hydroxycyclobutyl (8-amino-7-fluoro-6-(4-methyl-5,6,7,8-tetrahydro-1,5-naphthyridin-3-yl)isoquinolin-3-yl)carbamate], the pKi (read-out: HPK1 Ki) was greater than 10.89.
Still for that read-out and setting: under `Cc1c(-c2cc3cc(NC(=O)O[C@H]4C[C@@H](C#N)C4)ncc3c(N)c2F)cnc2c1NCCC2` [Compound 483a, (1s,3s)-3-Cyanocyclobutyl (8-amino-7-fluoro-6-(4-methyl-5,6,7,8-tetrahydro-1,5-naphthyridin-3-yl)isoquinolin-3-yl)carbamate] stands greater than 10.89.
